Laboratory results taken from patent US20250145606A1 (Arcus Biosciences, Inc., priority 2023, published 2025).
Marks after values point to notes of the source that are not given here.

Key:
[1] = molecular target: FLT3 (Homo sapiens (Human), UniProt P36888); assay: Inhibition of FLT3 kinase activity (HTRF KinEASE-TK); assay type: biochemical; settings: biochemical
In short: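 FLT3 tyrosine kinase activity was measured with the HTRF KinEASE-TK kit by following phosphorylation of a biotinylated TK peptide. After the 45 min reaction, 10 μL of detection mix was added: 0.2 μM (2×) Streptavidin-XL665 and 2 μM (2×) TK-Antibody-Cryptate in detection buffer. After 60 min, TR-FRET was read on an Envision as the 665 nm/620 nm emission ratio with 320 nm excitation.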

[2] = tested on: cynomolgus monkey hepatocytes; assay: Bioactivation assessment in monkey hepatocytes; assay type: in vitro ADME; settings: 5 μM, 4 hours
Method: (§1) Bioactivation Assessment Procedure
(§2) Pooled male Sprague Dawley rat (BioIVT), male beagle dog (BioIVT), male cynomolgus monkey (BioIVT), and a 50-donor pool of cryopreserved human hepatocytes (BioIVT) was thawed in pre-warmed 37° C. InVitroGro™ HT media (BioIVT), centrifuged, and resuspended in the InVitroGro™ HI media (BioIVT). The number of viable cells was determined by the Trypan blue exclusion method. The cells were diluted to a concentration of two million viable cells per milliliter (viability >80%) and seeded into round-bottom 96-well plates. The test articles were dissolved in DMSO and further diluted in 50% CH3CN and InVitroGro™ HI media with final concentrations of 0.05% DMSO and 0.5% CH3CN in the incubation mixture. Incubation was performed at a final concentration of one million cells per milliliter and 5 μM test compounds with continuous shaking at 1100 rpm in a 37° C., 5/95% CO2/air incubator with 100% relative humidity. After 4 hours, the samples were quenched by addition of 3 volumes of CH3CN, vortexed for 15 minutes, and centrifuged at 4200 rpm for 15 minutes at 10° C. (Sorvall Legend XTR centrifuge, Thermo Scientific, Langenselbold, Germany). 80 μL of the resulting supernatant was transferred into a new plate and mixed with 160 μL water followed by liquid chromatography-high resolution mass spectrometry (LC-HRMS) analysis.
(§3) Structural assignments of metabolites were determined through mass spectral analysis. The level of bioactivation was estimated based on the relative peak area of bioactivation products to all identified metabolites. The following equation was used: […]
(§4) Bioactivation products included glutathione conjugates, imine methides, quinones, diols, and other relevant metabolites.

[3] = tested on: human hepatocytes; assay: Bioactivation assessment in human hepatocytes; assay type: in vitro ADME; settings: 5 μM, 4 hours
Method: as §1, §2, §3, §4

Sequence of FLT3 (P36888 27-993): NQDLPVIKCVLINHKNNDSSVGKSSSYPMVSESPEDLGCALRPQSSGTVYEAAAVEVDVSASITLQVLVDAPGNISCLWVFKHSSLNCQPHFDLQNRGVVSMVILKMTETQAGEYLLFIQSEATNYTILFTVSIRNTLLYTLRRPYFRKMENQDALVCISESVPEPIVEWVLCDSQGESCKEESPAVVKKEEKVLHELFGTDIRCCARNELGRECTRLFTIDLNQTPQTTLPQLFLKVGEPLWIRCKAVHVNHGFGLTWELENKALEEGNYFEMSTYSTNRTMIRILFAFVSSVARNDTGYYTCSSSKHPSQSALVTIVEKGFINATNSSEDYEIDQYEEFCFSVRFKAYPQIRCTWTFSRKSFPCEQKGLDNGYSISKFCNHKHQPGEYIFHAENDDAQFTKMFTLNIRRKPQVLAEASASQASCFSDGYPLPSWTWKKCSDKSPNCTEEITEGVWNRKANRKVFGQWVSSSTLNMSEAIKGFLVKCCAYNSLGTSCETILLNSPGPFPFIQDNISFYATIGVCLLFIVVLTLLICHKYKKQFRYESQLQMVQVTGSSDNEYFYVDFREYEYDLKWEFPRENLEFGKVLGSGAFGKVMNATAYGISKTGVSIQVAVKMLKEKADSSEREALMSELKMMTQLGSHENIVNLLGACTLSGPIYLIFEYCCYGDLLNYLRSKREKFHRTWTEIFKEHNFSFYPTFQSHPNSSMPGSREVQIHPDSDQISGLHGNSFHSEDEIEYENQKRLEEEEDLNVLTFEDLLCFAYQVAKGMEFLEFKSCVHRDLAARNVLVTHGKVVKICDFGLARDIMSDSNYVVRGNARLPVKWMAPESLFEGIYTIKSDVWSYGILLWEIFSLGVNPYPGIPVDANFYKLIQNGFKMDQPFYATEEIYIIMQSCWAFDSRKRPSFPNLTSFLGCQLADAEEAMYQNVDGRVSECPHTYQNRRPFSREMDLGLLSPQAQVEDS

What does the source list for `Cc1ncc(C(=O)Nc2cc(C(=O)Nc3ccc(CC(F)(F)F)cn3)c(F)cc2C)s1` [Example 1, N-[4-Fluoro-2-methyl-5-[[5-(2,2,2-trifluoroethyl)pyridin-2-yl]carbamoyl]phenyl]-2-methyl-1,3-thiazole-5-carboxamide]?
IC50 [1]: > 1000 nM; Percent of total metabolism via bioactivation, Monkey hepatocytes [2]: 4%; Percent of total metabolism via bioactivation, Human hepatocytes [3]: <0.1%^b

Which results are given for `Cc1ncc(C(=O)Nc2cc(C(=O)Nc3ccc(C4CC4)cn3)c(F)cc2C)s1` [Example 3, N-[5-[(5-Cyclopropylpyridin-2-yl)carbamoyl]-4-fluoro-2-methylphenyl]-2-methyl-1,3-thiazole-5-carboxamide]?
IC50 [1]: > 1000 nM; Percent of total metabolism via bioactivation, Monkey hepatocytes [2]: 2%; Percent of total metabolism via bioactivation, Human hepatocytes [3]: <0.1%

Which IC50 [1] does the source give for `Cc1ncc(C(=O)Nc2cc(C(=O)Nc3cnc(OCC(C)(F)F)cn3)c(F)cc2C)s1` [Example 4, N-[5-[[5-(2,2-Difluoropropoxy)pyrazin-2-yl]carbamoyl]-4-fluoro-2-methylphenyl]-2-methyl-1,3-thiazole-5-carboxamide] here?
Its IC50 is > 1000 nM.

With `Cc1ncc(C(=O)Nc2cc(C(=O)Nc3ccc(CC4CC4)cn3)c(F)cc2C)s1` [Example 5, N-[5-[[5-(Cyclopropylmethyl)pyridin-2-yl]carbamoyl]-4-fluoro-2-methylphenyl]-2-methyl-1,3-thiazole-5-carboxamide] as the compound, how does the IC50 [1] read?
Its IC50 is > 1000 nM.

And the “Percent of total metabolism via bioactivation, Monkey hepatocytes” value [2]?
Its value is <1%.

What about the “Percent of total metabolism via bioactivation, Human hepatocytes” value [3] of the same compound?
Its value is <1%.

How did the IC50 ([1]; HTRF KinEASE-TK) turn out when `Cc1ncc(C(=O)Nc2cc(C(=O)Nc3ccc(OC(F)F)cn3)c(F)cc2C)s1` [Example 38, N-[5-[[5-(difluoromethoxy)pyridin-2-yl]carbamoyl]-4-fluoro-2-methylphenyl]-2-methyl-1,3-thiazole-5-carboxamide] was run?
The IC50 was > 1000 nM.

For `Cc1ncc(C(=O)Nc2cc(C(=O)Nc3ccc(OC4CC4)cn3)c(F)cc2C)s1` [Example 2, N-[5-[(5-Cyclopropyloxypyridin-2-yl)carbamoyl]-4-fluoro-2-methylphenyl]-2-methyl-1,3-thiazole-5-carboxamide], which IC50 [1] is on record?
The IC50 was > 1000 nM.

How did the IC50 ([1]; HTRF KinEASE-TK) turn out when `Cc1ncc(C(=O)Nc2cc(C(=O)Nc3ccc(CC(F)(F)F)cn3)c(F)cc2Cl)s1` [Example 46, N-[2-chloro-4-fluoro-5-[[5-(2,2,2-trifluoroethyl)pyridin-2-yl]carbamoyl]phenyl]-2-methyl-1,3-thiazole-5-carboxamide] was run?
Its IC50 is > 1000 nM.
